Measured values: patent publication US20030154507A1, “Synthetic herbicide resistance gene” (priority 2001, published 2003)

What was measured:
plants = conditions: in vivo; cited from earlier work
[1] = tested on: negative controls (cotton); assay: Respray event, negative controls; type: in vivo; conditions: all negative controls; 1/2 lb/acre acid equivalents
Method: (§1) Each plant tested positive for the SAD construct by PCR. These plants were grown for a further 14 days and then resprayed with 2,4-D amine at the normal field rate of 1/2 lb/acre acid equivalents. […] The 35 plants were grown to maturity, and seeds were collected.

[2] = tested on: transgenic 2,4-D resistant cotton containing the naturally-occurring tfdA gene construct; assay: Spray of 2,4-D res control seedlings, visual damage evaluation; type: in vivo; conditions: 55 plants, 1/2 lb/acre acid equivalents at 24 days, evaluated after 10-14 days
From the text: (§2) To verify that the inserted synthetic SAD genes were inheritable and to gain an indication of the number of gene insertions, seeds from the seven fertile SAD transgenic cotton plants were planted into hydroponic rock wool slabs (Hummert, St. Louis, Mo.) that had been saturated with Peters Professional water-soluble fertilizer (5-11-26 HYDRO-SOL, supplemented with calcium nitrate and magnesium sulfate to provide a complete nutrient compliment; Hummert, St. Louis, Mo.). The hydroponic rock wool slabs were placed on benches in a greenhouse, and nutrients were maintained at optimal levels using a non-recycling hydroponic watering system. Plants were grown under greenhouse conditions (28° C.±5° C. air temperature) for 24 days. At this point, the plants were removed to a spray hood, sprayed with 2,4-D amine at the normal field rate of 1/2 lb/acre acid equivalents, maintained in the hood for 24 hours to allow the 2,4-D to volatilize, and then placed back in the greenhouse.
(§3) The negative control of Coker 312 that had been regenerated from tissue culture did show some signs of resistance, so these ratios are not to be considered as definitive measures of Mendelian inheritance of the SAD gene.

[3] = tested on: Coker 312 (not transgenic) regenerated from somatic embryos; assay: Spray of 2,4-D sens control seedlings, visual damage evaluation; type: in vivo, cotton; conditions: 45 plants, 1/2 lb/acre acid equivalents at 24 days, evaluated after 10-14 days
From the text: as §2, §3

[4] = tested on: transgenic cotton plants containing the SAD2 gene (Coker 312); assay: Greenhouse spray of PCR-positive SAD2 transformed cotton plants with 2,4-D amine; type: in vivo; conditions: of 95 plants; 1 lb/acre acid equivalents (twice normal field rate); sprayed at squaring stage or later
From the text: The two binary vectors containing the SAD2 gene, pPZP211-PNPT-311-SAD2 and pPZP211-PNPT-512-SAD2, were individually introduced into the EHA 105 strain of Agrobacterium tumefaciens (Hood et al., Transgenic Research, 2:208-218 (1993)) by direct transformation as described by Walker-Peach and Velten, in Plant Molecular Biology Manual, section B1:1-19 (Gelvin, Shilperoort and Verma, eds., Kluwer Academic Publishers, Dordrecht, The Netherlands, 1994)). The constructs were subsequently introduced by Agrobacterium transfection into cotyledon explants from the cotton variety Coker 312 (Coker Seed Inc.). This was achieved by isolating sterile cotyledon tissue (derived from seedlings grown in culture from surface-sterilized seed as described by Trolinder and Gooden, Plant Cell Reports, 6:231-234 (1987)), generating explants (by use of a sterile hole punch), and submerging the explants in a 48-hour-old culture of EHA 105, containing the appropriate construct, grown at 28° C. […]
A total of 111 kanamycin-resistant cotton seedlings were generated (44 were generated in the pPZP211-PNPT-311-SAD2 transformations, and 67 in the pPZP211-PNPT-512-SAD2 transformations). Each plant was analyzed for the presence of the SAD synthetic coding sequence and the NPTII coding sequence by PCR to ensure the integrity of the inserted DNA. […]

[5] = tested on: SAD transgenic cotton plants; assay: Respray of undamaged SAD plants with 2,4-D amine; type: in vivo; conditions: all 35 plants (5 from each of 7 SAD lines); resprayed at 1/2 lb/acre acid equivalents 14 days after first evaluation
Method: as §1

[6] = tested on: SAD transgenic cotton plants; assay: Spray of seedlings from fertile SAD transgenic cotton lines, visual damage evaluation; type: in vivo; conditions: 1/2 lb/acre acid equivalents at 24 days, evaluated after 10-14 days
From the text: as §2, §3

Q: Which “toxicity to plants relative to 2,4-D” value (plants) does the source give for `Oc1ccc(Cl)cc1Cl` [DCP, 2,4-dichlorophenol] here?
A: much less toxic to plants than 2,4-D

Q: What does the source list for `CNC.O=C(O)COc1ccc(Cl)cc1Cl` [2,4-D amine]?
A: survival following respray [1]: did not survive; No Damage (number of plants) [2]: 7; Severe damage (number of plants) [2]: 15; Some symptoms (number of plants) [2]: 33; No Damage (number of plants) [3]: 0; Severe damage (number of plants) [3]: 25; Some symptoms (number of plants) [3]: 20; plants that survived treatment with little or no herbicide damage [4]: 22; damage following respray [5]: no damage; No Damage (number of plants) ([6]; line 311-22-1-4, 43 plants): 16; Severe damage (number of plants) ([6]; line 311-22-1-4, 43 plants): 11; Some symptoms (number of plants) ([6]; line 311-22-1-4, 43 plants): 16; No Damage (number of plants) ([6]; line 311-22-1-5, 47 plants): 6; Severe damage (number of plants) ([6]; line 311-22-1-5, 47 plants): 23; Some symptoms (number of plants) ([6]; line 311-22-1-5, 47 plants): 18; No Damage (number of plants) ([6]; line 311-22-1-8, 56 plants): 14; Severe damage (number of plants) ([6]; line 311-22-1-8, 56 plants): 14; Some symptoms (number of plants) ([6]; line 311-22-1-8, 56 plants): 28; No Damage (number of plants) ([6]; line 512-21-1-5, 56 plants): 8; Severe damage (number of plants) ([6]; line 512-21-1-5, 56 plants): 14; Some symptoms (number of plants) ([6]; line 512-21-1-5, 56 plants): 34; No Damage (number of plants) ([6]; line 512-21-4-3, 30 plants): 7; Severe damage (number of plants) ([6]; line 512-21-4-3, 30 plants): 3; Some symptoms (number of plants) ([6]; line 512-21-4-3, 30 plants): 20; No Damage (number of plants) ([6]; line 512-21-4-5, 41 plants): 5; Severe damage (number of plants) ([6]; line 512-21-4-5, 41 plants): 12; Some symptoms (number of plants) ([6]; line 512-21-4-5, 41 plants): 24; No Damage (number of plants) ([6]; line 512-24-4-4, 63 plants): 7; Severe damage (number of plants) ([6]; line 512-24-4-4, 63 plants): 35; Some symptoms (number of plants) ([6]; line 512-24-4-4, 63 plants): 21
